# Data taken from US20150087627A1, “COMBINATION OF KINASE INHIBITORS AND USES THEREOF” (Intellikine LLC, priority 2011, published 2015).
# Where two headings read alike, the source gives them in different places.
# Tests used:
# Format in all cases: biochemical
# PI3K γ (p110γ) = biological target: T1, PI3K γ (p110γ) (Homo sapiens, UniProt P48736); assay: PI 3-Kinase (human) HTRF assay, PI3K γ; settings: read-out: PI3K γ IC50
# T1 construct: purchased Upstate / Millipore Corporation
# PI3K δ = biological target: T2, PI3K δ (Homo sapiens, UniProt O00329); assay: PI 3-Kinase (human) HTRF assay, PI3K δ; settings: read-out: PI3K δ IC50
# T2 construct: purchased Upstate / Millipore Corporation
# T2 sequence (O00329 whole entry): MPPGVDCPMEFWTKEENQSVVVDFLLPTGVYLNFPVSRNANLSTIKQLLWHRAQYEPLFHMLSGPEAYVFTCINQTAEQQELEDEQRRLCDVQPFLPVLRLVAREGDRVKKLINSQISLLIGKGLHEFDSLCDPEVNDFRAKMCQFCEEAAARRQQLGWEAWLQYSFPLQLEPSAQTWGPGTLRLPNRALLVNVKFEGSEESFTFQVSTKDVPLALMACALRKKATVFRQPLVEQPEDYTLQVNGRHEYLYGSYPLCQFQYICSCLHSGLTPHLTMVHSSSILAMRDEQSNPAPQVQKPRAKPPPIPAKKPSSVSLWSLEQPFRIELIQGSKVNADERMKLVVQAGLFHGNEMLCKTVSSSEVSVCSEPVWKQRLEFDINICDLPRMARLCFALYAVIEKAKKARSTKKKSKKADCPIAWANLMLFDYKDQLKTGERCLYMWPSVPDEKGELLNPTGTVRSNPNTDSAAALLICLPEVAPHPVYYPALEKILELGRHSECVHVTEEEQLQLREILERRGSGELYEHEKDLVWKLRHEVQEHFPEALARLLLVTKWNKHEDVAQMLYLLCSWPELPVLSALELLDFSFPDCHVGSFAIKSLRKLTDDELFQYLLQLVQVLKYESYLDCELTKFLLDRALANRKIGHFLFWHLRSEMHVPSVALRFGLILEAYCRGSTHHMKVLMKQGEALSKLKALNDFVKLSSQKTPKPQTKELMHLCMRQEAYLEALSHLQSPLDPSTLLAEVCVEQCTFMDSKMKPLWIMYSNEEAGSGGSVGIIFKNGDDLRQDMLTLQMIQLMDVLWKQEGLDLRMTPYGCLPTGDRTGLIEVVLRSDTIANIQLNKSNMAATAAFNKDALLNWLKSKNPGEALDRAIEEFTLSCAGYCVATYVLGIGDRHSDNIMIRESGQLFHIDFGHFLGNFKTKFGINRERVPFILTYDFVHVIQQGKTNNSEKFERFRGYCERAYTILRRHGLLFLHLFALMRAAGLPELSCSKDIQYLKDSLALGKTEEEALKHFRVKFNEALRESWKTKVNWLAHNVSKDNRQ
# T2 sequence (P27986 whole entry partner): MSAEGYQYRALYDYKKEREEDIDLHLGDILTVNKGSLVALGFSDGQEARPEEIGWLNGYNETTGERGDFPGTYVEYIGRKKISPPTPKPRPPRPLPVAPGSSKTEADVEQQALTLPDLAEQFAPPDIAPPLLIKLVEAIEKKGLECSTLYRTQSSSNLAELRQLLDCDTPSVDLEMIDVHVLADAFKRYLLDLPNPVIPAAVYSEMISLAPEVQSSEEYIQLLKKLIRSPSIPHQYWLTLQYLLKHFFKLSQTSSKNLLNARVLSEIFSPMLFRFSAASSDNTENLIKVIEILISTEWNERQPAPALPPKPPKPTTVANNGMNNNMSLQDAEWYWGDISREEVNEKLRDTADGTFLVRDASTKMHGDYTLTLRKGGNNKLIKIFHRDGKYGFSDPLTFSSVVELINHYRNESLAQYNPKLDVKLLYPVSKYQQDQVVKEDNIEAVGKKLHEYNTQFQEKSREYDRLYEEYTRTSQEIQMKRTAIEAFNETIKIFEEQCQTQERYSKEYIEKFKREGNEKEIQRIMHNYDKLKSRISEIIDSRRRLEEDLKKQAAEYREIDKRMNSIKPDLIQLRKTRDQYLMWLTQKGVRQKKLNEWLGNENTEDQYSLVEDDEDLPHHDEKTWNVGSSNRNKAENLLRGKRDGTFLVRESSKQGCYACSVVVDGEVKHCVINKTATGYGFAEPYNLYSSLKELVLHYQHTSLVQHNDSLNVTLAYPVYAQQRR
# PI3K β (p110β/p85α) = biological target: T3, PI3K β (p110β/p85α) (Homo sapiens, UniProt P42338); assay: PI 3-Kinase (human) HTRF assay, PI3K β; settings: read-out: PI3K β IC50
# T3 construct: purchased Upstate / Millipore Corporation
# T3 sequence (P42338 whole entry): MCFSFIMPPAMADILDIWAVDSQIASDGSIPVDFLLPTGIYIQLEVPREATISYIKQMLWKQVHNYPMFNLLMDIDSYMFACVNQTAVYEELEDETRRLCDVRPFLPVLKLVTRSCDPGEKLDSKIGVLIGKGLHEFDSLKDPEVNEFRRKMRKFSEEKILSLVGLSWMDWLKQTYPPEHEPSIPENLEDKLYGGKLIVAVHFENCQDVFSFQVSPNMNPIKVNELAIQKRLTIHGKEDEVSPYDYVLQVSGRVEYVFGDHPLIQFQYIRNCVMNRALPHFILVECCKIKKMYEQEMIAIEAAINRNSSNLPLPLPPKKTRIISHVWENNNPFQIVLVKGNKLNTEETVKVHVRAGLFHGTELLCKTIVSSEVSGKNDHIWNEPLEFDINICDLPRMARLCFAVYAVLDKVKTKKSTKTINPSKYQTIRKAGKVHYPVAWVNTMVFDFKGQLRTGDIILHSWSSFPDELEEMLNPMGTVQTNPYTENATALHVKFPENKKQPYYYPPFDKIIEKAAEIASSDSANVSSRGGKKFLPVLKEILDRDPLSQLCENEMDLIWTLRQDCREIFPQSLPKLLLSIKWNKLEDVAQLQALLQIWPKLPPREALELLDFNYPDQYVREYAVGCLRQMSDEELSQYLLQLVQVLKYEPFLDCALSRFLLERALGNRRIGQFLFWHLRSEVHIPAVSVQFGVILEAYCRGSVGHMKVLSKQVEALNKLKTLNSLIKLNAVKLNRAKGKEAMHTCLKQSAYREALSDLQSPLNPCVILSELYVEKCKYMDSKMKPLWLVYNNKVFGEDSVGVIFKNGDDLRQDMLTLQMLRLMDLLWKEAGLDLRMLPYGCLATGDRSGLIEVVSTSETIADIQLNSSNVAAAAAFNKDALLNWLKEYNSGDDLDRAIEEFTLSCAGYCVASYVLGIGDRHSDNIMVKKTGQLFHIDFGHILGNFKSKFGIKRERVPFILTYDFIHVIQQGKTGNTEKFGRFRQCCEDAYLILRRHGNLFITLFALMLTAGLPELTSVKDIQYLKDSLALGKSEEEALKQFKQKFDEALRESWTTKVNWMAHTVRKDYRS
# T3 sequence (P27986 whole entry partner): as the sequence (P27986 whole entry partner) above
# PI3K α (p110α/p85α) = biological target: T4, PI3K α (p110α/p85α) (Homo sapiens, UniProt P42336); assay: PI 3-Kinase (human) HTRF assay, PI3K α; settings: read-out: PI3K α IC50
# T4 construct: purchased Upstate / Millipore Corporation
# T4 sequence (P42336 whole entry): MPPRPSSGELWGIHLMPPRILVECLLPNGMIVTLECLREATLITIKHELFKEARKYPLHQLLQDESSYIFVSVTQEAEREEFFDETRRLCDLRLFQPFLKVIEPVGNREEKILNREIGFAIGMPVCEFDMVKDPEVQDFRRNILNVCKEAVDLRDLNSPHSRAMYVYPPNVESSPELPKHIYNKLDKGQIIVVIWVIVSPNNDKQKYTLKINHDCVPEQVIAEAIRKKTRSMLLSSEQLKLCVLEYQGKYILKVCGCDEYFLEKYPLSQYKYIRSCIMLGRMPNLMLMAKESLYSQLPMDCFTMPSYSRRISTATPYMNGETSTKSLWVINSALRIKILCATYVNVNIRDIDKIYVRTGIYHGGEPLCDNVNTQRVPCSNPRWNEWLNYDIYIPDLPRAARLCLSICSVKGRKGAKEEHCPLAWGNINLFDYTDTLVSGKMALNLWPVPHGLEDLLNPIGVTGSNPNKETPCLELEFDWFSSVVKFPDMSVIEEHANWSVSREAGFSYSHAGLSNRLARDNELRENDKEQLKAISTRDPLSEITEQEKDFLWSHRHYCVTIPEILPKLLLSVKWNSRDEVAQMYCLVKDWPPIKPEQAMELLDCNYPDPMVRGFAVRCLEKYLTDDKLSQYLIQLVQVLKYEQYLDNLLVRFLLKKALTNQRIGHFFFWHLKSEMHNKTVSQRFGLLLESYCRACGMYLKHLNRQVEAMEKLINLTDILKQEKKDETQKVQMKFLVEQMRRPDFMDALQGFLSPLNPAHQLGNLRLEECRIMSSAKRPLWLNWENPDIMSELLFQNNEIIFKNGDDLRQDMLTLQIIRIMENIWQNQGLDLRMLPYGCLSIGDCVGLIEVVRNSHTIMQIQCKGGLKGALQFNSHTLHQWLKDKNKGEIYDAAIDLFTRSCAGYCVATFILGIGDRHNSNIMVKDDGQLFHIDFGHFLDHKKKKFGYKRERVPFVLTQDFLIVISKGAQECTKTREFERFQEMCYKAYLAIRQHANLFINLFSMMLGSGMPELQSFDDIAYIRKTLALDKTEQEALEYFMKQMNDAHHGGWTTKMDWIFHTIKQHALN
# T4 sequence (P27986 whole entry partner): as the sequence (P27986 whole entry partner) above
# T1 sequence (P48736 whole entry): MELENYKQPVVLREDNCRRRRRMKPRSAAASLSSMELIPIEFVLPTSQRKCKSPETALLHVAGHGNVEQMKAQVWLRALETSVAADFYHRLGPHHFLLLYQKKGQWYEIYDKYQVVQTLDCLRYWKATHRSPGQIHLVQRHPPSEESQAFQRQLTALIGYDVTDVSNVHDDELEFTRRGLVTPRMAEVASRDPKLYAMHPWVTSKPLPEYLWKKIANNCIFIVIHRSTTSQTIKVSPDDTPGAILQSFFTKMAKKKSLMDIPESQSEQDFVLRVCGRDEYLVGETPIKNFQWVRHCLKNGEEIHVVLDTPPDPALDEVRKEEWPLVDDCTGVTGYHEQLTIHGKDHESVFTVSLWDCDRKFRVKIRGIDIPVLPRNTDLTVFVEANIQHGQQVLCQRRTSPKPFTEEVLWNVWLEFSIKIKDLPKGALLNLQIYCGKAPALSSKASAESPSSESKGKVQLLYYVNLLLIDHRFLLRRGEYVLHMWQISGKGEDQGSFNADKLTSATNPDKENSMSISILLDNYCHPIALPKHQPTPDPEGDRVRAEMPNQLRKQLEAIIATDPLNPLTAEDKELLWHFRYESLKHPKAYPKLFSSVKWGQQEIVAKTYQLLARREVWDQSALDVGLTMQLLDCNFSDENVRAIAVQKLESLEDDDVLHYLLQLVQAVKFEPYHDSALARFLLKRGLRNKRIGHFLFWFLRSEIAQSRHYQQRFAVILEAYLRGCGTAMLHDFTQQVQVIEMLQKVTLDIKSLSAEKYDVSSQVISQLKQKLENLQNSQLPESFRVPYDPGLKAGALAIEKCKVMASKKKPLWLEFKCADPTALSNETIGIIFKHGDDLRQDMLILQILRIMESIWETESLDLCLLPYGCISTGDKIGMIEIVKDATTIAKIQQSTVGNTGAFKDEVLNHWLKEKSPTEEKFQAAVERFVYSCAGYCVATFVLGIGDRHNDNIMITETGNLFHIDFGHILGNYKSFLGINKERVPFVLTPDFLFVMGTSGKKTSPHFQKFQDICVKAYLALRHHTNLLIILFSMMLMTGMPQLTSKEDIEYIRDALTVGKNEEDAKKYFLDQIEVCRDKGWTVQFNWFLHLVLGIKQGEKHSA
Structure (SMILES),IC50 (PI3K γ (p110γ)),IC50 (PI3K δ),IC50 (PI3K β (p110β/p85α)),IC50 (PI3K α (p110α/p85α)),IC50 (PI3K γ (p110γ); Table 4 (PI3K α inhibitors)),IC50 (PI3K δ; Table 4 (PI3K α inhibitors)),IC50 (PI3K β (p110β/p85α); Table 4 (PI3K α inhibitors)),IC50 (PI3K α (p110α/p85α); Table 4 (PI3K α inhibitors))
CNC(=O)C1CN(c2cnc3ccc(-c4ccc5oc(N)nc5c4)cc3n2)C1 [Compound 214],< 1000 nM,< 10 µM,< 0.1 µM,< 100 nM,–,–,–,–
Nc1nc2cc(-c3cn4c(-c5cn[nH]c5)cnc4cn3)ccc2o1 [Compound 69],< 1000 nM,< 10 µM,< 10 µM,< 1000 nM,–,–,–,–
Nc1nc2cc(-c3ccc4ncc(N5CC(N)C5)nc4c3)ccc2o1 [Compound 367],< 1000 nM,< 10 µM,< 1 µM,< 1000 nM,–,–,–,–
Nc1nc2cc(-c3ccc4ncc(N5CCCC5)nc4c3)ccc2o1 [Compound 176],< 100 nM,< 1 µM,< 1 µM,< 100 nM,–,–,–,–
CN1CCN(c2ncnc3ccc(-c4ccc5oc(N)nc5c4)cc23)CC1 [Compound 23],< 100 nM,< 10 µM,< 1 µM,< 100 nM,–,–,–,–
Nc1nc2cc(-c3cc4nccc(-c5ccncc5)c4s3)ccc2o1 [Compound 14],< 10000 nM,> 10 µM,> 10 µM,< 10000 nM,–,–,–,–
Cc1nccn1-c1cnc2ccc(-c3ccc4oc(N)nc4c3)cc2n1 [Compound 174],< 100 nM,< 10 µM,< 1 µM,< 100 nM,–,–,–,–
CC(C)n1cnc2ccc(-c3ccc4oc(N)nc4c3)cc2c1=O [Compound 206],< 1000 nM,> 10 µM,> 10 µM,< 100 nM,–,–,–,–
COc1ncc(-c2ccc3ncc(C(=O)N4CCOCC4)n3c2)cc1NS(=O)(=O)c1ccccc1F [Compound 422],< 100 nM,< 1 µM,< 10 µM,< 100 nM,–,–,–,–
Nc1nc2cc(-c3ccc4ncc(N5CCOCC5)nc4c3)ccc2s1 [Compound 116],< 1000 nM,> 10 µM,< 1 µM,< 100 nM,–,–,–,–
Cc1cc(-c2ccc3nc(N)oc3c2)cn2c(CCN3CCN(C)CC3)nnc12 [Compound 548],> 10000 nM,> 10 µM,> 10 µM,> 10000 nM,–,–,–,–
COc1ncc(-c2ccc3ncc(C(=O)N4CCOCC4)n3c2)cc1NS(=O)(=O)c1ccc(F)cc1 [Compound 421],< 100 nM,< 0.1 µM,< 1 µM,< 100 nM,–,–,–,–
Cc1cc2oc(N)nc2cc1-c1ccc2ncc(N3CCN[C@@H](C)C3)nc2c1 [Compound 351],> 10000 nM,> 10 µM,< 1 µM,< 10000 nM,–,–,–,–
C[C@H]1CN(c2cnc3scc(-c4ccc5oc(N)nc5c4)c3c2)CCN1 [Compound 399],> 10000 nM,> 10 µM,> 10 µM,> 10000 nM,–,–,–,–
Nc1nc2cc(-c3ccc4ncc(N5CCC(F)(F)CC5)nc4n3)ccc2o1 [Compound 564],–,–,–,–,< 100 nM,> 10 µM,> 10 µM,< 100 nM
O=C(c1cnc2ccc(-c3cncc(NS(=O)(=O)c4ccccc4)c3)cn12)N1CCOCC1 [Compound 424],< 1000 nM,< 10 µM,> 10 µM,< 1000 nM,–,–,–,–
Nc1cn2cc(-c3ccc4nc(N)oc4c3)ccc2n1 [Compound 247],< 10000 nM,> 10 µM,< 10 µM,> 10000 nM,–,–,–,–
CN1CCN(C(=O)C2CN(c3cnc4ccc(-c5ccc6oc(N)nc6c5)cc4n3)C2)CC1 [Compound 253],< 10000 nM,< 10 µM,< 10 µM,> 10000 nM,–,–,–,–
CNS(=O)(=O)c1cccc(-c2ccc3ncc(C(=O)N4CCOCC4)n3c2)c1 [Compound 442],> 10000 nM,> 10 µM,> 10 µM,> 10000 nM,–,–,–,–
CN1CCC(Nc2cnc3ccc(-c4ccc5oc(N)nc5c4)cc3n2)CC1 [Compound 81],< 1000 nM,< 0.1 µM,< 1 µM,< 100 nM,–,–,–,–

# Continued, in another order:
IC50 (PI3K γ (p110γ)),IC50 (PI3K δ),IC50 (PI3K β (p110β/p85α)),IC50 (PI3K α (p110α/p85α)),Structure (SMILES),IC50 (PI3K γ (p110γ); Table 4 (PI3K α inhibitors)),IC50 (PI3K δ; Table 4 (PI3K α inhibitors)),IC50 (PI3K β (p110β/p85α); Table 4 (PI3K α inhibitors)),IC50 (PI3K α (p110α/p85α); Table 4 (PI3K α inhibitors))
< 1000 nM,> 10 µM,< 10 µM,< 1000 nM,Nc1nc2cc(-c3ccc4ncc(C(=O)N5CCOCC5)n4n3)ccc2o1 [Compound 105],–,–,–,–
> 10000 nM,> 10 µM,> 10 µM,> 10000 nM,Cc1c(-c2ccc3ncc(N4CC(N5CCOCC5)C4)nc3c2)ccc2oc(N)nc12 [Compound 362],–,–,–,–
< 1000 nM,< 10 µM,< 10 µM,< 1000 nM,Nc1nc2cc(-c3ccc4ncc(C(=O)N5CC[C@@H](N6CCOCC6)C5)n4c3)ccc2o1 [Compound 466],–,–,–,–
< 10000 nM,> 10 µM,< 10 µM,< 100 nM,CC1CN(C(=O)c2cnc3ccc(-c4ccc5oc(N)nc5c4)cn23)CCO1 (centres unmarked) [Compound 201],–,–,–,–
< 10000 nM,< 10 µM,> 10 µM,< 1000 nM,Nc1nc2cc(-c3ccc4ncc(N5CCN(C(=O)C6(N)CC6)CC5)nc4c3)ccc2o1 [Compound 226],–,–,–,–
< 100 nM,< 1 µM,< 10 µM,< 100 nM,Nc1nc2cc(-c3ccc4ncc(C(=O)N5CCCC5)n4c3)ccc2o1 [Compound 186],–,–,–,–
< 10000 nM,> 10 µM,> 10 µM,< 1000 nM,Nc1nc2cc(-c3ccc4ncc(C(=O)N5CCC(N6CC(F)(F)C6)C5)n4c3)ccc2o1 (centres unmarked) [Compound 498],–,–,–,–
> 10000 nM,> 10 µM,> 10 µM,> 10000 nM,Cc1cc2ncc(C(=O)N3CCOCC3)n2cc1-c1ccc2oc(N)nc2c1 [Compound 507],–,–,–,–
> 10000 nM,> 10 µM,< 10 µM,< 10000 nM,CN1CCN(C(=O)c2cnc3ccc(-c4ccc5nc(N)sc5c4)cn23)CC1 [Compound 146],–,–,–,–
< 100 nM,> 10 µM,> 10 µM,< 1000 nM,Nc1nc2cc(-c3ccc4ncc(C(=O)N5CCC(F)CC5)n4c3)ccc2o1 [Compound 503],–,–,–,–
< 100 nM,< 0.1 µM,< 0.1 µM,< 100 nM,CC(=O)N1CCN(c2cnc3ccc(-c4ccc5oc(N)nc5c4)cc3n2)CC1 [Compound 85],–,–,–,–
< 100 nM,< 1 µM,< 0.1 µM,< 100 nM,CN1CCC(NC(=O)c2cnc3ccc(-c4ccc5oc(N)nc5c4)nn23)CC1 [Compound 203],–,–,–,–
< 1000 nM,> 10 µM,> 10 µM,< 100 nM,Nc1nc2cc(-c3ccc4ncc(C(=O)N5CC[C@H](N6CCOCC6)C5)n4c3)ccc2o1 [Compound 465],–,–,–,–
< 10000 nM,< 10 µM,< 10 µM,< 100 nM,Nc1nc2cc(-c3ccc4ncc(N5CC(N6CCS(=O)(=O)CC6)C5)nc4c3)ccc2o1 [Compound 334],–,–,–,–
< 1000 nM,> 10 µM,< 10 µM,< 100 nM,C[C@@H]1COCCN1C(=O)c1cnc2ccc(-c3ccc4oc(N)nc4c3)cn12 [Compound 495],–,–,–,–
> 10000 nM,> 10 µM,> 10 µM,> 10000 nM,CN1CCC(Nc2nc3cc(-c4ccc5ncc(C(=O)N6CCOCC6)n5c4)ccc3o2)CC1 [Compound 408],–,–,–,–
< 100 nM,< 10 µM,< 1 µM,< 100 nM,Nc1nc2cc(-c3ccc4ncc(C(=O)NCCOCC(=O)O)n4c3)ccc2o1 [Compound 551],–,–,–,–
> 10000 nM,> 10 µM,> 10 µM,< 1000 nM,Nc1nc2ccc(-c3ccc4ncc(C(=O)N5CCOCC5)n4c3)cc2[nH]1 [Compound 544],–,–,–,–
